Measurements published in PubChem BioAssay AID1918936 (Molecular Pharmacology Branch, DTP, NCI, 2023).
Several values for one entry are separate records, joined by “and”; a condition that tells them apart may be missing. Equal entries are not always repeated.

System: 349418-098-R-PDC complex spheroid viability
Test: Anticancer human tumor 349418-098-R-PDC patient-derived lung adenocarcinoma cell line growth inhibition
Details: for viability, T/C: stronger effect = lower value
How it was run: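 Complex spheroids of tumor cells with HUVEC and human MSCs, exposed to iadademstat combined with other agents. Each agent tested in half-log steps from near clinical Cmax (else 10 microM top), DMSO ≤0.25%.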

[1] = curve of first compound, second compound 0.1 µM
[2] = curve of first compound, second compound 0.316 µM
[3] = curve of first compound, second compound 1 µM
[4] = curve of first compound, second compound 3.16 µM
[5] = curve of first compound, second compound 10 µM
[6] = second compound 0.1 µM, first compound 0.0316 µM
[7] = second compound 0.1 µM, first compound 0.1 µM
[8] = second compound 0.1 µM, first compound 0.316 µM
[9] = second compound 0.1 µM, first compound 1 µM
[10] = second compound 0.1 µM, first compound 3.16 µM
[11] = second compound 0.1 µM, first compound 10 µM
[12] = second compound 0.316 µM, first compound 0.0316 µM
[13] = second compound 0.316 µM, first compound 0.1 µM
[14] = second compound 0.316 µM, first compound 0.316 µM
[15] = second compound 0.316 µM, first compound 1 µM
[16] = second compound 0.316 µM, first compound 3.16 µM
[17] = second compound 0.316 µM, first compound 10 µM
[18] = second compound 1 µM, first compound 0.0316 µM
[19] = second compound 1 µM, first compound 0.1 µM
[20] = second compound 1 µM, first compound 0.316 µM
[21] = second compound 1 µM, first compound 1 µM
[22] = second compound 1 µM, first compound 3.16 µM
[23] = second compound 1 µM, first compound 10 µM
[24] = second compound 3.16 µM, first compound 0.0316 µM
[25] = second compound 3.16 µM, first compound 0.1 µM
[26] = second compound 3.16 µM, first compound 0.316 µM
[27] = second compound 3.16 µM, first compound 1 µM
[28] = second compound 3.16 µM, first compound 3.16 µM
[29] = second compound 3.16 µM, first compound 10 µM
[30] = second compound 10 µM, first compound 0.0316 µM
[31] = second compound 10 µM, first compound 0.1 µM
[32] = second compound 10 µM, first compound 0.316 µM
[33] = second compound 10 µM, first compound 1 µM
[34] = second compound 10 µM, first compound 3.16 µM
[35] = second compound 10 µM, first compound 10 µM
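Also: spheroids exposed to agents for seven days before readout.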
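For viability, T/C in this document: 100% = DMSO vehicle control wells.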

For `O=C(C=Cc1cccc(S(=O)(=O)Nc2ccccc2)c1)NO`, the viability, T/C (compound 0.00949 µM) was 81.2% and 75%, the viability, T/C (compound 0.03 µM) was 71.6% and 70.5% and the viability, T/C (compound 0.0949 µM) was 58.6% and 19.1%. For the same molecule, the viability, T/C (compound 0.3 µM) was 17.8% and 2.96%, the viability, T/C (compound 0.949 µM) was 3.74% and 0.75% and the IC50 (curve of compound) was 0.118 µM and 0.0527 µM.

With `Nc1ccn(C2OC(CO)C(O)C2(F)F)c(=O)n1` (configuration not stated) the viability, T/C (compound 0.000949 µM) was 5.35% and 15%, the viability, T/C (compound 0.003 µM) was 5.18% and 4.23% and the viability, T/C (compound 0.00949 µM) was 4.99% and 4.4%. For the same molecule, the viability, T/C (compound 0.03 µM) was 4% and 4.8%, the viability, T/C (compound 0.0949 µM) was 4.25% and 4.46% and the viability, T/C (compound 0.3 µM) was 4.05% and 4.24%. For the same molecule, the IC50 (curve of compound) was under 0.000949 µM.

In the case of `CC(C)c1c(-c2ccccc2)nc2c(C#N)c[nH]n2c1=O` + NC1CCC(NC2CC2c2ccccc2)CC1, the IC50 [1] is reported as over 10 µM, the IC50 [2] is reported as over 10 µM and the IC50 [3] is reported as over 10 µM. It also gave an IC50 [4] of over 10 µM, an IC50 [5] of over 10 µM and a viability, T/C [6] of 108%. For the same molecule, the viability, T/C [7] was 112%, the viability, T/C [8] was 93.7% and the viability, T/C [9] was 105%. The viability, T/C [10] was 104%, the viability, T/C [11] was 88.1% and the viability, T/C [12] was 108%. For the same molecule, the viability, T/C [13] was 110%, the viability, T/C [14] was 113% and the viability, T/C [15] was 104%. The viability, T/C [16] was 101%, the viability, T/C [17] was 98.8% and the viability, T/C [18] was 104%. For the same molecule, the viability, T/C [19] was 113%, the viability, T/C [20] was 108% and the viability, T/C [21] was 100%. The viability, T/C [22] was 104%, the viability, T/C [23] was 93.8% and the viability, T/C [24] was 96.4%. It also gave a viability, T/C [25] of 92.5%, a viability, T/C [26] of 113% and a viability, T/C [27] of 108%. For the same molecule, the viability, T/C [28] was 102%, the viability, T/C [29] was 87.3% and the viability, T/C [30] was 101%. For the same molecule, the viability, T/C [31] was 84.1%, the viability, T/C [32] was 108% and the viability, T/C [33] was 93.6%. For the same molecule, the viability, T/C [34] was 86.4% and the viability, T/C [35] was 78.7%.

In the case of `CCc1c2c(nc3ccc(O)cc13)-c1cc3c(c(=O)n1C2)COC(=O)[C@]3(O)CC`, the viability, T/C (compound 0.000949 µM) is reported as 4.32% and 3.69%, the viability, T/C (compound 0.003 µM) is reported as 2.63% and 2.24% and the viability, T/C (compound 0.00949 µM) is reported as 1.82% and 1.28%. For the same molecule, the viability, T/C (compound 0.03 µM) was 1.29% and 1.41%, the viability, T/C (compound 0.0949 µM) was 1.48% and 2.01% and the viability, T/C (compound 0.3 µM) was 1.75% and 2.19%. It also gave an IC50 (curve of compound) of under 0.000949 µM.

`O=C(c1cc(Cc2n[nH]c(=O)c3ccccc23)ccc1F)N1CCN(C(=O)C2CC2)CC1` + NC1CCC(NC2CC2c2ccccc2)CC1 was tested, and the IC50 [1] was 4.25 µM, the IC50 [2] was 5.9 µM and the IC50 [3] was 4.18 µM. It also gave an IC50 [4] of 4.91 µM, an IC50 [5] of 2.52 µM and a viability, T/C [6] of 93.9%. For the same molecule, the viability, T/C [7] was 88.8%, the viability, T/C [8] was 82.6% and the viability, T/C [9] was 77.8%. It also gave a viability, T/C [10] of 51.7%, a viability, T/C [11] of 40.6% and a viability, T/C [12] of 93.8%. The viability, T/C [13] was 87.3%, the viability, T/C [14] was 82.4% and the viability, T/C [15] was 77.2%. The viability, T/C [16] was 59.5%, the viability, T/C [17] was 41.1% and the viability, T/C [18] was 106%. For the same molecule, the viability, T/C [19] was 98.1%, the viability, T/C [20] was 79.4% and the viability, T/C [21] was 75.4%. The viability, T/C [22] was 62.2%, the viability, T/C [23] was 28.9% and the viability, T/C [24] was 92.4%. The viability, T/C [25] was 89%, the viability, T/C [26] was 87% and the viability, T/C [27] was 69.6%. For the same molecule, the viability, T/C [28] was 64.6%, the viability, T/C [29] was 32.4% and the viability, T/C [30] was 89.5%. It also gave a viability, T/C [31] of 68.7%, a viability, T/C [32] of 64.8% and a viability, T/C [33] of 62.4%. For the same molecule, the viability, T/C [34] was 48.7% and the viability, T/C [35] was 38.2%.

In the case of `Nc1ncn(C2CC(O)C(CO)S2)c(=O)n1` (configuration not stated), the viability, T/C (compound 0.000949 µM) is reported as 104% and 92.4%, the viability, T/C (compound 0.003 µM) is reported as 84% and 91.7% and the viability, T/C (compound 0.00949 µM) is reported as 64.8% and 63.6%. For the same molecule, the viability, T/C (compound 0.03 µM) was 33.8% and 29.8%, the viability, T/C (compound 0.0949 µM) was 16.8% and 11.8% and the viability, T/C (compound 0.3 µM) was 8.91% and 5.28%. The IC50 (curve of compound) was 0.0158 µM and 0.0155 µM.
